This note sets out measurements from patent publication US9689043B2 (CHUNGBUK NATIONAL UNIVERSITY INDUSTRY—ACADEMIC COOPERATION …, priority 2012, dated 2017).

For this test, the system named is T24 human bladder cancer cells. In words: Cell viability assay (MTS) in transfected T24 cells incubated with drugs. In kind it is cell-based. On the procedure: T24 human bladder cancer cells were purchased from American Type Culture Collection (ATCC, Manassas, Va.) and maintained in RPMI1640 media (Invitrogen, Carlsbad, Calif.) with 10% FBS and 1% Penicillin/Streptomycin at 37° C. under 5% CO2. T24 cells at ˜80% confluence were transiently transfected with expressing constructs or small interfering RNAs (siRNAs) of EGFR and S100A9 using Lipofactamine 2000. For S100A9 overexpression, pCMV-Sports6-S100A9 and vector constructs were kindly provided by Dr. A. Moon (Duksung University, Korea). As transfection controls, empty (Ctrl) or NON-TARGET control siRNAs (siCtrl) were used.
Cell viability was determined using MTS reagents as instructed by the manufacturer's protocol (Promega Corporation, Madison, Wis.).

As to `N.N.[Cl][Pt][Cl]` [cisplatin], the “Cisplatin-induced apoptosis / viability” value (EGFR overexpressing T24 cells, 10 μM cisplatin, serum free medium) is on record as “did not show significant apoptosis until 24 h-treatment”.

In the case of `COc1cc2ncnc(Nc3ccc(F)c(Cl)c3)c2cc1OCCCN1CCOCC1` [Iressa, gefitinib], the Cell viability entry (T24 cells, EGFR inhibition with Iressa (FIG. 6, line 2)) is “significantly reduced viability”. Also, the Chemo-sensitivity to cisplatin result is, setting by setting: (T24 cells, EGFR inhibition with Iressa plus cisplatin (FIG. 6, line 2)) “enhanced chemo-sensitivity to cisplatin”; (T24 cells, Iressa combined with S100A9 silencing by siRNA, plus cisplatin (FIG. 6, line 4)) “synergistically enhanced chemo-sensitivity”.
